The target in one assay is T1, Human recombinant PKCα (Homo sapiens, UniProt P17252).
T1 construct: purchased Oxford Biomedical Research
Kind of assay: Protein Kinase Cα Assay. In kind it is biochemical. To be noted: 10 μM 33P-ATP, 60 min room temperature.

In assay [1] the test system is Jurkat cells transfected with a human interleukin-2 promoter/reporter gene construct. As to the kind of experiment: CD28 Costimulation Assay. In kind it is cell-based. As to conditions: stimulated transfected Jurkat cells, 5.5 hours, stimulus not specified for these values, read-out: IC50 CD28 costimulation assay (luciferase reporter). How it is done: The assay is performed with Jurkat cells transfected with a human interleukin-2 promoter/reporter gene construct as described by Baumann G et al. in Transplant. Proc. 1992; 24:43-8, the β-galactosidase reporter gene being replaced by the luciferase gene (de Wet J., et al., Mol. Cell. Biol. 1987, 7(2), 725-737). Cells are stimulated by solid phase-coupled antibodies or phorbol myristate acetate (PMA) and the Ca^++ ionophore ionomycin as follows. For antibody-mediated stimulation Microlite TM1 microtiter plates (Dynatech) are coated with 3 μg/ml goat anti-mouse IgG Fc antibodies (Jackson) in 55 μl phosphate-buffered saline (PBS) per well for three hours at RT. Plates are blocked after removing the antibodies by incubation with 2% bovine serum albumin (BSA) in PBS (300 μl per well) for 2 hours at RT. […] After incubation for 5.5 hours at 37° C. in 5% CO2, the level of luciferase is determined by bioluminescence measurement. […] Luciferase activity is assessed with a bioluminescence reader (Labsystem, Helsinki, Finland) after automatic addition of 50 μl per well luciferase reaction buffer containing 20 mM Tricine, 1.07 mM (MgCO3)4Mg(OH)2×5H2O, 2.67 mM MgSO4, 0.1 mM EDTA, 33.3 mM DTT, 270 μM coenzyme A, 470 μM luciferin (Chemie Brunschwig AG), 530 μM ATP, pH 7.8. […] The inhibition obtained in the presence of a test compound is calculated as percent inhibition of the high control. […]
(Reporter assays use an easily measured gene product as a stand-in for the process of interest.)

In assay [2] the test system is spleen cells from CBA and BALB/c mice. Kind of assay: Allogeneic Mixed Lymphocyte Reaction (MLR). In kind it is cell-based. As to conditions: two-way MLR, CBA and BALB/c mouse spleen cells, four days incubation, read-out: IC50 MLR (3H-thymidine incorporation, proliferation). How it is done:
The two-way MLR is performed according to standard procedures (J. Immunol. Methods, 1973, 2, 279 and Meo T. et al., Immunological Methods, New York, Academic Press, 1979, 227-39). Briefly, spleen cells from CBA and BALB/c mice (1.6×10^5 cells from each strain per well in flat bottom tissue culture microtiter plates, 3.2×10^5 in total) are incubated in RPMI medium containing 10% FCS, 100 U/ml penicillin, 100 μg/ml streptomycin (Gibco BRL, Basel, Switzerland), 50 μM 2-mercaptoethanol (Fluka, Buchs, Switzerland) and serially diluted compounds. Seven three-fold dilution steps in duplicates per test compound are performed. After four days of incubation 1 μCi ^3H-thymidine is added. Cells are harvested after an additional five-hour incubation period, and incorporated ^3H-thymidine is determined according to standard procedures. Background values (low control) of the MLR are […].
[…] proliferation of BALB/c cells alone. Low controls are subtracted from all values. High controls without any sample are taken as 100% proliferation. […]
Background: Uptake of a labelled nucleoside into DNA is a usual measure of proliferation.

In another assay the target is Human recombinant PKCθ (Homo sapiens, UniProt Q04759). As to the kind of experiment: Protein Kinase C θ Assay.
Human recombinant PKCθ, sequence (Q04759 whole entry): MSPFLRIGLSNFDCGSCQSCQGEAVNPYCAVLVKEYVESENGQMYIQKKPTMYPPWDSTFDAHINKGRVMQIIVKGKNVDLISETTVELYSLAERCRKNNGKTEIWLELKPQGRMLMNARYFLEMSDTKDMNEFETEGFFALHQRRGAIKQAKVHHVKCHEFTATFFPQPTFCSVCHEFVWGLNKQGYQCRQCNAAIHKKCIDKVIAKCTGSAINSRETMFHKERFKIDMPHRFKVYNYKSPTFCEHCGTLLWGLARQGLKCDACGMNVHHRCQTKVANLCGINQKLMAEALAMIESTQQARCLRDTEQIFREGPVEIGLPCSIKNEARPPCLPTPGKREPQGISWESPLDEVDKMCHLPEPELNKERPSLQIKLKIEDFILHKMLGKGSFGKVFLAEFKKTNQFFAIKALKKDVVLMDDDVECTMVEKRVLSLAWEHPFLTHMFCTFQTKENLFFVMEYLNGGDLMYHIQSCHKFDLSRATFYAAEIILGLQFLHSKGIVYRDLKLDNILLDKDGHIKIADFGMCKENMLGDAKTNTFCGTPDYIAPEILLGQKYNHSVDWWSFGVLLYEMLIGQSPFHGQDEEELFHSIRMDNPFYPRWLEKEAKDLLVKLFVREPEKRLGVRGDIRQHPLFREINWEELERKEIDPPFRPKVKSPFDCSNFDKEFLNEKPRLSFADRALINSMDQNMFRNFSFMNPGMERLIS

Protocol for Human recombinant PKCθ: The compounds of the invention are tested for their activity on different PKC isoforms according to the following method. Assay is performed in a white with clear bottom 384-well microtiterplate with non-binding surface. The reaction mixture (25 μl) contains 1.5 μM of a tridecapeptide acceptor substrate that mimics the pseudo substrate sequence of PKC α with the Ala→Ser replacement, 10 μM ^33P-ATP, 10 mM Mg(NO3)2, 0.2 mM CaCl2, PKC at a protein concentration varying from 25 to 400 ng/ml (depending on the isotype used), lipid vesicles (containing 30 mol % phosphatidylserine, 5 mol % DAG and 65 mol % phosphatidylcholine) at a final lipid concentration of 0.5 mM, in 20 mM Tris-HCl buffer pH 7.4+0.1% BSA. Incubation is performed for 60 min at room temperature. Reaction is stopped by adding 50 μl of stop mix (100 mM EDTA, 200 μM ATP, 0.1% Triton X-100, 0.375 mg/well streptavidin-coated SPA beads in phosphate buffered saline w/o Ca, Mg). After 10 min incubation at room temperature, the suspension is spun down for 10 min at 300 g. Incorporated radioactivity is measured in a Trilux counter for 1 min. IC50 measurement is performed on a routine basis by incubating a serial dilution of inhibitor at concentrations ranging between 1-1000 μM. IC50 values are calculated from the graph by curve fitting with XL fit® software.

For `CN1CCN(c2ccc([N+](=O)[O-])c(C3=C(c4c[nH]c5ccccc45)C(=O)NC3=O)c2)CC1` [Example 1, 3-(1H-indol-3-yl)-4-[5-(4-methyl-piperazin-1-yl)-2-nitro-phenyl]-pyrrole-2,5-dione], the IC50 came out at 0.0026 µM at Human recombinant PKCα, 0.0255 µM in assay [1], 0.0175 µM in assay [2] and 0.0089 µM at Human recombinant PKCθ.

For the compound `Cc1cccc2c(C3=C(c4cc(N5CCN(C)CC5)ccc4[N+](=O)[O-])C(=O)NC3=O)c[nH]c12` [Example 4], the IC50 came out at 0.0029 µM on Human recombinant PKCα, 0.017 µM in assay [1], 0.024 µM in assay [2] and 0.0102 µM at Human recombinant PKCθ.

Values taken from US7851475B2, “Substituted pyrrole-2, 5-diones as protein kinase C inhibitors” (Novartis AG, priority 2004, dated 2010).
